Measurements: patent publication US20190307843A1, “SINGLE DOSE METHODS FOR PREVENTING AND TREATING FUNGAL INFECTIONS” (Cidara Therapeutics, Inc., priority 2016, published 2019)
Like-named read-outs stand apart in the source and are kept apart here.

Assays:
C. albicans strain 529L = assay: Rat model of vulvovaginal candidiasis, vaginal lavage and tissue burden; format: in vivo, Candida albicans
Candida auris strains = assay: Candida auris antifungal susceptibility testing (CLSI M27-A3), 38 strains; format: cell-based; conditions: for MIC: Candidozyma auris
[1] = 20 mg/kg PO Dosed Once, lavage Day 1 post infection, pre-treatment
[2] = 20 mg/kg PO Dosed Once, lavage Day 2 post infection
[3] = 20 mg/kg PO Dosed Once, lavage Day 3 post infection
[4] = 20 mg/kg PO Dosed Once, lavage Day 5 post infection
[5] = 20 mg/kg PO Dosed Once, lavage Day 7 post infection
[6] = 20 mg/kg PO Dosed Once, lavage Day 9 post infection
[7] = 20 mg/kg PO Dosed Once, terminal vaginal tissue Day +9 post infection
[8] = 20 mg/kg PO Dosed Twice, lavage Day 1 post infection, pre-treatment
[9] = 20 mg/kg PO Dosed Twice, lavage Day 2 post infection
[10] = 20 mg/kg PO Dosed Twice, lavage Day 3 post infection
[11] = 20 mg/kg PO Dosed Twice, lavage Day 5 post infection
[12] = 20 mg/kg PO Dosed Twice, lavage Day 7 post infection
[13] = 20 mg/kg PO Dosed Twice, lavage Day 9 post infection
[14] = 20 mg/kg PO Dosed Twice, terminal vaginal tissue Day +9 post infection

OC(Cn1cncn1)(Cn1cncn1)c1ccc(F)cc1F [fluconazole]
−1.06 CFU/mL: Log reduction from vehicle control (C. albicans strain 529L; [1])
2.18 CFU/mL: Log Group Geometric mean (C. albicans strain 529L; [2])
4.30 CFU/mL: Log reduction from vehicle control (C. albicans strain 529L; [6]) | Log reduction from vehicle control (C. albicans strain 529L; [13])
1.00 CFU/mL: Group Geometric mean (C. albicans strain 529L; [3]) | Group Geometric mean (C. albicans strain 529L; [4]) | Group Geometric mean (C. albicans strain 529L; [5]) | Group Geometric mean (C. albicans strain 529L; [6]) | Group Geometric mean (C. albicans strain 529L; [11]) | Group Geometric mean (C. albicans strain 529L; [12]) | Group Geometric mean (C. albicans strain 529L; [13])
5.49 CFU/g: Log reduction from vehicle control (C. albicans strain 529L; [7]) | Log reduction from vehicle control (C. albicans strain 529L; [14])
about 1.6 Log10 CFU/mL: reduction in burden (C. albicans strain 529L; fluconazole 20 mg/kg PO, lavage Day 2 post infection)
64 µg/mL: MIC (Candida auris strains; 24 h, strain 18 VCPI 107/P/14, 24 h, read-out: MIC) | MIC (Candida auris strains; 24 h, strain 24 VCPI 250/P/14, 24 h, read-out: MIC) | MIC (Candida auris strains; 48 h, strain 8 VCPI 475/P/13, 48 h, read-out: MIC) | MIC (Candida auris strains; 48 h, strain 14 VCPI 1130/P/13, 48 h, read-out: MIC)
1.50 × 10^2 CFU/mL: Group Geometric mean (C. albicans strain 529L; [2])
below the limit of detection: lavage burden (C. albicans strain 529L; fluconazole once or twice, all rats, Day 5 post infection) | terminal vaginal tissue burden (C. albicans strain 529L; fluconazole once or twice, all rats, Day 9)
1.04 × 10^3 CFU/mL: Group Geometric mean (C. albicans strain 529L; [8])
32 µg/mL: MIC (Candida auris strains; 24 h, strain 14 VCPI 1130/P/13, 24 h, read-out: MIC)
3.57 CFU/mL: Log reduction from vehicle control (C. albicans strain 529L; [3])
1.27 × 10^2 CFU/mL: Group Geometric mean (C. albicans strain 529L; [9])
−0.58 CFU/mL: Log reduction from vehicle control (C. albicans strain 529L; [8])
11/12: rats having burden below the limit of detection (C. albicans strain 529L; fluconazole 20 mg/kg PO once or twice, lavage Day 3 post infection)
1.59 CFU/mL: Log reduction from vehicle control (C. albicans strain 529L; [9])
38: number of resistant isolates (Candida auris strains; of 38 C. auris isolates)
1.49 CFU/mL: Group Geometric mean (C. albicans strain 529L; [10])
4.18 CFU/mL: Log reduction from vehicle control (C. albicans strain 529L; [5]) | Log reduction from vehicle control (C. albicans strain 529L; [12])
2.10 CFU/mL: Log Group Geometric mean (C. albicans strain 529L; [9])
4 µg/mL: MIC (Candida auris strains; 24 h, strain 35 VCPI 717/P/14, 24 h, read-out: MIC)
> 128 µg/mL: MIC (Candida auris strains; 24 h, strain 1 VPCI 669/P/12) | MIC (Candida auris strains; 24 h, strain 2 VCPI 671/P/12) | MIC (Candida auris strains; 24 h, strain 3 VCPI 674/P/12) | MIC (Candida auris strains; 24 h, strain 4 VCPI 683/P/12) | MIC (Candida auris strains; 24 h, strain 5 VCPI 692/P/12) | MIC (Candida auris strains; 24 h, strain 6 VCPI 712/P/12) | MIC (Candida auris strains; 24 h, strain 7 VCPI 471/P/13) | MIC (Candida auris strains; 24 h, strain 8 VCPI 475/P/13) | MIC (Candida auris strains; 24 h, strain 9 VCPI 478/P/13) | MIC (Candida auris strains; 24 h, strain 10 VCPI 479/P/13) | MIC (Candida auris strains; 24 h, strain 11 VCPI 480/P/13) | MIC (Candida auris strains; 24 h, strain 12 VCPI 482/P/13) | MIC (Candida auris strains; 24 h, strain 13 VCPI 483/P/13) | MIC (Candida auris strains; 24 h, strain 16 VCPI 1133/P/13) | MIC (Candida auris strains; 24 h, strain 19 VCPI 510/P/14) | MIC (Candida auris strains; 24 h, strain 22 VCPI 513/P/14) | MIC (Candida auris strains; 24 h, strain 23 VCPI 514/P/14) | MIC (Candida auris strains; 24 h, strain 25 VCPI 265/P/14) | MIC (Candida auris strains; 24 h, strain 26 VCPI 266/P/14) | MIC (Candida auris strains; 24 h, strain 27 VCPI 462/P/14) | MIC (Candida auris strains; 24 h, strain 28 VCPI 463/P/14) | MIC (Candida auris strains; 24 h, strain 29 VCPI 467/P/14) | MIC (Candida auris strains; 24 h, strain 30 VCPI 471a/P/14) | MIC (Candida auris strains; 24 h, strain 31 VCPI 478/P/14) | MIC (Candida auris strains; 24 h, strain 32 VCPI 518/P/14) | MIC (Candida auris strains; 24 h, strain 33 VCPI 550/P/14) | MIC (Candida auris strains; 24 h, strain 34 VCPI 714/P/14) | MIC (Candida auris strains; 24 h, strain 36 VCPI 1060/P/14) | MIC (Candida auris strains; 24 h, strain 37 VCPI 74/P/15) | MIC (Candida auris strains; 24 h, strain 38 VCPI 213/P/15) | MIC (Candida auris strains; 48 h, strain 1 VPCI 669/P/12) | MIC (Candida auris strains; 48 h, strain 2 VCPI 671/P/12) | MIC (Candida auris strains; 48 h, strain 4 VCPI 683/P/12) | MIC (Candida auris strains; 48 h, strain 5 VCPI 692/P/12) | MIC (Candida auris strains; 48 h, strain 7 VCPI 471/P/13) | MIC (Candida auris strains; 48 h, strain 11 VCPI 480/P/13) | MIC (Candida auris strains; 48 h, strain 12 VCPI 482/P/13) | MIC (Candida auris strains; 48 h, strain 16 VCPI 1133/P/13) | MIC (Candida auris strains; 48 h, strain 18 VCPI 107/P/14) | MIC (Candida auris strains; 48 h, strain 19 VCPI 510/P/14) | MIC (Candida auris strains; 48 h, strain 20 VCPI 511/P/14) | MIC (Candida auris strains; 48 h, strain 21 VCPI 512/P/14) | MIC (Candida auris strains; 48 h, strain 22 VCPI 513/P/14) | MIC (Candida auris strains; 48 h, strain 23 VCPI 514/P/14) | MIC (Candida auris strains; 48 h, strain 24 VCPI 250/P/14) | MIC (Candida auris strains; 48 h, strain 25 VCPI 265/P/14) | MIC (Candida auris strains; 48 h, strain 26 VCPI 266/P/14) | MIC (Candida auris strains; 48 h, strain 27 VCPI 462/P/14) | MIC (Candida auris strains; 48 h, strain 28 VCPI 463/P/14) | MIC (Candida auris strains; 48 h, strain 29 VCPI 467/P/14) | MIC (Candida auris strains; 48 h, strain 30 VCPI 471a/P/14) | MIC (Candida auris strains; 48 h, strain 31 VCPI 478/P/14) | MIC (Candida auris strains; 48 h, strain 32 VCPI 518/P/14) | MIC (Candida auris strains; 48 h, strain 33 VCPI 550/P/14) | MIC (Candida auris strains; 48 h, strain 34 VCPI 714/P/14) | MIC (Candida auris strains; 48 h, strain 35 VCPI 717/P/14) | MIC (Candida auris strains; 48 h, strain 36 VCPI 1060/P/14) | MIC (Candida auris strains; 48 h, strain 37 VCPI 74/P/15) | MIC (Candida auris strains; 48 h, strain 38 VCPI 213/P/15)
0.00 CFU/mL: Log Group Geometric mean (C. albicans strain 529L; [3]) | Log Group Geometric mean (C. albicans strain 529L; [4]) | Log Group Geometric mean (C. albicans strain 529L; [5]) | Log Group Geometric mean (C. albicans strain 529L; [6]) | Log Group Geometric mean (C. albicans strain 529L; [11]) | Log Group Geometric mean (C. albicans strain 529L; [12]) | Log Group Geometric mean (C. albicans strain 529L; [13])
1.52 CFU/mL: Log reduction from vehicle control (C. albicans strain 529L; [2])
4.22 CFU/mL: Log reduction from vehicle control (C. albicans strain 529L; [4]) | Log reduction from vehicle control (C. albicans strain 529L; [11])
3.02 CFU/mL: Log Group Geometric mean (C. albicans strain 529L; [8])
3.40 CFU/mL: Log reduction from vehicle control (C. albicans strain 529L; [10])
1.00 CFU/g: Group Geometric mean (C. albicans strain 529L; [7]) | Group Geometric mean (C. albicans strain 529L; [14])
3.16 × 10^3 CFU/mL: Group Geometric mean (C. albicans strain 529L; [1])
3.50 CFU/mL: Log Group Geometric mean (C. albicans strain 529L; [1])
0.17 CFU/mL: Log Group Geometric mean (C. albicans strain 529L; [10])
128 µg/mL: MIC (Candida auris strains; 24 h, strain 15 VCPI 1132/P/13) | MIC (Candida auris strains; 24 h, strain 17 VCPI 105/P/14) | MIC (Candida auris strains; 24 h, strain 20 VCPI 511/P/14) | MIC (Candida auris strains; 48 h, strain 3 VCPI 674/P/12) | MIC (Candida auris strains; 48 h, strain 6 VCPI 712/P/12) | MIC (Candida auris strains; 48 h, strain 9 VCPI 478/P/13) | MIC (Candida auris strains; 48 h, strain 10 VCPI 479/P/13) | MIC (Candida auris strains; 48 h, strain 13 VCPI 483/P/13) | MIC (Candida auris strains; 48 h, strain 15 VCPI 1132/P/13) | MIC (Candida auris strains; 48 h, strain 17 VCPI 105/P/14)
0.00 CFU/g: Log Group Geometric mean (C. albicans strain 529L; [7]) | Log Group Geometric mean (C. albicans strain 529L; [14])
16 µg/mL: MIC (Candida auris strains; 24 h, strain 21 VCPI 512/P/14, 24 h, read-out: MIC)
